# According to patent publication US8791132B2, “Compounds and methods for treatment of hypertension” (Medivation Technologies, Inc., priority 2011, dated 2014):
# pKi: −log10 of the molar value. Like-named read-outs stand apart in the source and are kept apart here.
# Columns and labels:
# [1] = molecular target: T1, human recombinant adrenergic α2B receptor (Homo sapiens, UniProt P18089); experiment: Radioligand binding, adrenergic α2B ([3H]Rauwolscine)
# T1 construct: expressed in transfected cells; host or cells: CHO-K1
# T1 sequence (P18089 1-450): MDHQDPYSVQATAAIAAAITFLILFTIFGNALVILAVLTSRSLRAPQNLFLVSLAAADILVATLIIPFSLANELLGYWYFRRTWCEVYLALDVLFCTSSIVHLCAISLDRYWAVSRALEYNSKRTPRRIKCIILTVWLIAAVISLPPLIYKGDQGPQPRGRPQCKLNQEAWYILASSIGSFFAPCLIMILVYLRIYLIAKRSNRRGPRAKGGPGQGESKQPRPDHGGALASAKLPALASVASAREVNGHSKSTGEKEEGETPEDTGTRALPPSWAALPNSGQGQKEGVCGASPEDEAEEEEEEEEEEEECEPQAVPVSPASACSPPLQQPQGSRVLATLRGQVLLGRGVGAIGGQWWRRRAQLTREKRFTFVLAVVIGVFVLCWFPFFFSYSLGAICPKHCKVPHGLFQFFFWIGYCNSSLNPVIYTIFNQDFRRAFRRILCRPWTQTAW
# Method in brief: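 Readout: percent inhibition of specific [3H]Rauwolscine binding, measured by filtration and counting. Conditions: CHO-K1 cell-expressed receptor, 2.5 nM radioligand, 60 min, 25° C, Tris-HCl pH 7.4 buffer with MgCl2, EDTA, BSA. Non-specific binding: 10 μM Prazosin.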
# [2] = molecular target: T2, human recombinant adrenergic α2A receptor (Homo sapiens, UniProt P08913); experiment: Radioligand binding, adrenergic α2A ([3H]MK-912)
# T2 construct: expressed in transfected cells; host or cells: insect Sf9 cells
# T2 sequence (P08913 1-465): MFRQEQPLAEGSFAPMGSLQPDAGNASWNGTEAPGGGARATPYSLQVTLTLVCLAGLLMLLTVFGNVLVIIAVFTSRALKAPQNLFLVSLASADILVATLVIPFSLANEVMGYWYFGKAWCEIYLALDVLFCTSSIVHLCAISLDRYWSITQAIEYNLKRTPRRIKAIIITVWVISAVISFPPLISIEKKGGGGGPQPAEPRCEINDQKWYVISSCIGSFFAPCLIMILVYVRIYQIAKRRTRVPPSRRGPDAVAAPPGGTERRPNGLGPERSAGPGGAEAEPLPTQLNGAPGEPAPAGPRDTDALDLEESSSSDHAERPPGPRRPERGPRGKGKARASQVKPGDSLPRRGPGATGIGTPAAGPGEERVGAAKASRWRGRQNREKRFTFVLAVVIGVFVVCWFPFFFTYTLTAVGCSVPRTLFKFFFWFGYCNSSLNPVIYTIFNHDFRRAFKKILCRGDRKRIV
# Method in brief: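 Receptor expressed in Sf9 cells, in 50 mM Tris-HCl pH 7.4, 12.5 mM MgCl2, 2 mM EDTA; compounds incubated with 1 nM [3H]MK-912 for 60 min at 25 °C.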
# [3] = molecular target: T3, rat adrenergic α1B receptor (Rattus norvegicus, UniProt P15823); experiment: Radioligand binding, adrenergic α1B ([3H]Prazosin)
# T3 construct: rat adrenergic α1B receptor obtained from Wistar Rat liver; from tissue; host or cells: Wistar rat liver
# T3 sequence (P15823 1-515): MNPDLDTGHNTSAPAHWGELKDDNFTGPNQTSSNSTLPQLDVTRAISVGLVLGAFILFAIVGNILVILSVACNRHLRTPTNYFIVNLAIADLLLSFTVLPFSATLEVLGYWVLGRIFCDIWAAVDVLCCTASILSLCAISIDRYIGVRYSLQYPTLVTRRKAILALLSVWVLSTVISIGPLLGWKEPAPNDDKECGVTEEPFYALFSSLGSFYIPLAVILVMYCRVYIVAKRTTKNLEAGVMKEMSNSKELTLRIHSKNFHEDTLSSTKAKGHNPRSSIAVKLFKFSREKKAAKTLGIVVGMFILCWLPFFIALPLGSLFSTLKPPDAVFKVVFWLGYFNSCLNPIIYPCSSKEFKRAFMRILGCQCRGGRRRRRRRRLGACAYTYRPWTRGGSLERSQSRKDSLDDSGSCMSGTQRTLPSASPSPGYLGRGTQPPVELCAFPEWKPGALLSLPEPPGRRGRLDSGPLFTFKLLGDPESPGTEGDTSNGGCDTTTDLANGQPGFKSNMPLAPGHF
# Method in brief: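 Rat α1B receptor from Wistar rat liver was incubated with 0.25 nM [3H]prazosin for 60 min at 25 °C in 50 mM Tris-HCl, pH 7.4, 0.5 mM EDTA. Non-specific binding was defined with 10 μM phentolamine. Bound radioligand was measured by filtration and counting, reported as percent inhibition of specific binding.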
# [4] = molecular target: T4, human recombinant adrenergic α1D receptor (Homo sapiens, UniProt P25100); experiment: Radioligand binding, adrenergic α1D ([3H]Prazosin)
# T4 construct: expressed in transfected cells; host or cells: HEK-293
# T4 sequence (P25100 1-572): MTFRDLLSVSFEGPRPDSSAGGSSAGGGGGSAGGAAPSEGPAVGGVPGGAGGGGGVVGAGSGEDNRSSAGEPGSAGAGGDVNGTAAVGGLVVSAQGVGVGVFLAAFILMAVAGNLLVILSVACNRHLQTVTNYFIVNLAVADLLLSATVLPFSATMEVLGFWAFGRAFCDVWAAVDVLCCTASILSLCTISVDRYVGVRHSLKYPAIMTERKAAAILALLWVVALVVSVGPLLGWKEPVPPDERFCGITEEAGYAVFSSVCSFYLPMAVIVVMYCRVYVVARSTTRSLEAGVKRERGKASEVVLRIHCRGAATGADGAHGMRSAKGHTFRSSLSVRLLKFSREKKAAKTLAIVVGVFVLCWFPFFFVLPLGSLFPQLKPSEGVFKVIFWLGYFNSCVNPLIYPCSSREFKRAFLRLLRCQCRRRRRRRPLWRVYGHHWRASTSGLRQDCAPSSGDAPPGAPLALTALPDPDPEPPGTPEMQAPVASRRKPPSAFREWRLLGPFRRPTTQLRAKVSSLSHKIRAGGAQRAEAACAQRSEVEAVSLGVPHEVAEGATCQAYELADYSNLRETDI
# Method: Compounds were incubated with 0.6 nM [3H]Prazosin for 60 min at 25° C. Non-specific binding was estimated in the presence of 10 μM phentolamine. Receptor proteins were filtered and washed, the filters were then counted to determine [3H]Prazosin specifically bound. […] Biochemical assay results are presented as the percent inhibition of specific binding in Table B1.
# [5] = read-out: Percentage inhibition of ligand binding, Adrenergic α2B (0.1 μM), compound at 0.1 μM, [3H]Rauwolscine, repeat datapoints each shown
# [6] = read-out: Percentage inhibition of ligand binding, Adrenergic α2A (0.1 μM), compound at 0.1 μM, [3H]MK-912, repeat datapoints each shown
# [7] = read-out: Percentage inhibition of ligand binding, Adrenergic α1B (0.1 μM), compound at 0.1 μM, [3H]Prazosin, repeat datapoints each shown
# [8] = read-out: Percentage inhibition of ligand binding, Adrenergic α1D (0.1 μM), compound at 0.1 μM, [3H]Prazosin, repeat datapoints each shown
# [9] = 0.1 μM compound, read-out: Percentage inhibition of ligand binding, Adrenergic α2B
# [10] = 0.1 μM compound, read-out: Percentage inhibition of ligand binding, Adrenergic α2A
# [11] = 0.1 μM compound, read-out: Percentage inhibition of ligand binding, Adrenergic α1B
# [12] = 0.1 μM compound, read-out: Percentage inhibition of ligand binding, Adrenergic α1D
SMILES,"inhibition at 0.1 µM [1, 5]","inhibition at 0.1 µM [2, 6]","inhibition at 0.1 µM [3, 7]","inhibition at 0.1 µM [4, 8]","inhibition at 0.1 µM [1, 9]","inhibition at 0.1 µM [2, 10]","inhibition at 0.1 µM [3, 11]","inhibition at 0.1 µM [4, 12]",pKi [2],"inhibition at 0.03 µM ([2]; 0.03 μM compound, read-out: Percentage inhibition of ligand binding, Adrenergic α2A)","Percentage inhibition of ligand binding, Adrenergic α2A ([2]; 0.1 μM compound, 0.1 µM)"
CN1CCc2c(n(CC(C)(O)c3ccc(F)cc3)c3ccc(Cl)cc23)CC1 (centres unmarked) [compound 221],80%,56%,65%,16%,,,,,,,
COc1ccc(/C(C)=C/n2c3c(c4cc(C)ccc42)CCN(C)CC3)c(F)c1 [compound 222],104%,96%,95%,101%,,,,,,,
C/C(=C\n1c2c(c3cc(C)ccc31)CCN(C)C2)c1ccc(Cl)cc1 [compound 224],69%,52%,70%,26%,,,,,,,
C/C(=C\n1c2c(c3cc(C)ccc31)C1CCC(C2)N1C)c1ccc(Cl)cc1Cl (centres unmarked) [compound 225],80%,75%,27%,12%,,,,,,,
C/C(=C\n1c2c(c3cc(C)ccc31)CCN(C)CC2)c1ccc(Cl)cc1Cl [compound 227],98%,66%,21%,-2%,,,,,,,
C/C(=C\n1c2c(c3cc(C)ccc31)C1CCC(C2)N1C)c1ccccc1F (centres unmarked) [compound 231],87%,65%,48%,26%,,,,,,,
C/C(=C\n1c2c(c3cc(C)ccc31)CCN(C)CC2)c1ccccc1F [compound 232],102%,87%,87%,43%,,,,,,,
C/C(=C\n1c2c(c3cc(Cl)ccc31)CCN(C)CC2)c1ccccc1F [compound 233],103%,80%,73%,28%,,,,,,,
C/C(=C\n1c2c(c3cc(Cl)ccc31)CCN(C)CC2)c1ccccc1Cl [compound 235],96%,80%,48%,11%,,,,,,,
C/C(=C/n1c2c(c3cc(C)ccc31)CN(C)CC2)c1cccc(F)c1 [compound 236],98%,99%,94%,85%,,,,,,,
C/C(=C\n1c2c(c3cc(C)ccc31)CCN(C)CC2)c1ccc(Cl)c(Cl)c1 [compound 238],98%,94%,67%,25%,,,,,,,
COc1ccc(C#Cn2c3c(c4cc(Cl)ccc42)CCN(C)CC3)cc1F [compound 242],,,,,98%,50%,53%,37%,,,
C/C(=C\n1c2c(c3cc(C)ccc31)CCN(C)CC2)c1cccnc1 [compound 245],,,,,96%,65%,69%,35%,,,
COc1ccc(/C(C)=C/n2c3c(c4cc(Cl)ccc42)CCN(C)CC3)cc1 [compound 246],,,,,101%,86%,82%,68%,,,
C/C(=C\n1c2c(c3cc(Cl)ccc31)CCN(C)CC2)c1cccc(F)c1 [compound 248],,,,,95%,90%,76%,31%,,,

# Now from value to compound:
"inhibition at 0.1 µM [1, 5]","inhibition at 0.1 µM [2, 6]","inhibition at 0.1 µM [3, 7]","inhibition at 0.1 µM [4, 8]","inhibition at 0.1 µM [1, 9]","inhibition at 0.1 µM [2, 10]","inhibition at 0.1 µM [3, 11]","inhibition at 0.1 µM [4, 12]",pKi [2],"inhibition at 0.03 µM ([2]; 0.03 μM compound, read-out: Percentage inhibition of ligand binding, Adrenergic α2A)","Percentage inhibition of ligand binding, Adrenergic α2A ([2]; 0.1 μM compound, 0.1 µM)",SMILES
83%,85%,88%,48%,,,,,,,,C/C(=C/n1c2c(c3cc(C)ccc31)CCN(C)CC2)c1ccc(Cl)cc1Cl [compound 226]
42%,77%,64%,19%,,,,,,,,C/C(=C/n1c2c(c3cc(Cl)ccc31)CCN(C)CC2)c1ccc(Cl)cc1Cl [compound 228]
90%,53%,17%,8%,,,,,,,,C/C(=C\n1c2c(c3cc(Cl)ccc31)CCN(C)CC2)c1ccc(Cl)cc1Cl [compound 229]
93%,87%,94%,58%,,,,,,,,C/C(=C/n1c2c(c3cc(C)ccc31)CCN(C)CC2)c1ccccc1F [compound 230]
99%,98%,80%,52%,,,,,,,,C/C(=C\n1c2c(c3cc(C)ccc31)CN(C)CC2)c1cccc(F)c1 [compound 237]
,,,,105%,90%,58%,45%,8.41,73%,98%,C/C(=C\n1c2c(c3cc(C)ccc31)CN(C)CC2)c1ccc(Cl)c(Cl)c1 [compound 243]
,,,,99%,76%,78%,42%,,,,C/C(=C\n1c2c(c3cc(Cl)ccc31)CCN(C)CC2)c1cccnc1 [compound 244]
,,,,89%,96%,95%,81%,,,,C/C(=C/n1c2c(c3cc(Cl)ccc31)CCN(C)CC2)c1cccc(F)c1 [compound 247]
